Source: ChEMBL document CHEMBL5352433, “Design, synthesis, and biological evaluation of low-toxic lappaconitine derivatives as potential analgesics” (Eur J Med Chem, 2022)

tested on: Mus musculus; test: Analgesic activity against acetic acid-induced Kunming writhing mouse model assessed as inhibition of writhing at 10 mg/kg, sc pretreated with compound for 15 mins followed by acetic acid addition and measured after 15 mins relative to control; assay type: functional; conditions: 0.5 h, time 30 min

SMILES	inhibition in vivo at 10 mg/kg [%]
CCN1C[C@]2(OC(=O)c3ccccc3NS(=O)(=O)c3cccc(C(F)(F)F)c3)CC[C@H](OC)[C@]34C1[C@H](C[C@H]23)[C@@]1(O)C[C@H](OC)[C@H]2C[C@@H]4[C@]1(O)[C@H]2OC	12.8
CCN1C[C@]2(OC(=O)c3ccccc3NS(=O)(=O)c3cccc(C)c3)CC[C@H](OC)[C@]34C1[C@H](C[C@H]23)[C@@]1(O)C[C@H](OC)[C@H]2C[C@@H]4[C@]1(O)[C@H]2OC	52.1
CCN1C[C@]2(OC(=O)c3ccccc3NS(=O)(=O)c3ccc(Cl)cc3)CC[C@H](OC)[C@]34C1[C@H](C[C@H]23)[C@@]1(O)C[C@H](OC)[C@H]2C[C@@H]4[C@]1(O)[C@H]2OC	11.7
CCN1C[C@]2(OC(=O)c3ccccc3NS(=O)(=O)c3cc(F)c(F)cc3F)CC[C@H](OC)[C@]34C1[C@H](C[C@H]23)[C@@]1(O)C[C@H](OC)[C@H]2C[C@@H]4[C@]1(O)[C@H]2OC	26
CCN1C[C@]2(OC(=O)c3ccccc3NC(=O)c3ccc(C)cc3C)CC[C@H](OC)[C@]34C1[C@H](C[C@H]23)[C@@]1(O)C[C@H](OC)[C@H]2C[C@@H]4[C@]1(O)[C@H]2OC	0
CCN1C[C@]2(OC(=O)c3ccccc3NS(=O)(=O)c3ccc(Br)cc3)CC[C@H](OC)[C@]34C1[C@H](C[C@H]23)[C@@]1(O)C[C@H](OC)[C@H]2C[C@@H]4[C@]1(O)[C@H]2OC	11.4
CCN1C[C@]2(OC(=O)c3ccccc3NS(=O)(=O)Cc3ccc([N+](=O)[O-])cc3)CC[C@H](OC)[C@]34C1[C@H](C[C@H]23)[C@@]1(O)C[C@H](OC)[C@H]2C[C@@H]4[C@]1(O)[C@H]2OC	42.4
CCN1C[C@]2(OC(=O)c3ccccc3NS(=O)(=O)CCCCl)CC[C@H](OC)[C@]34C1[C@H](C[C@H]23)[C@@]1(O)C[C@H](OC)[C@H]2C[C@@H]4[C@]1(O)[C@H]2OC	32.1
CCN1C[C@]2(OC(=O)c3ccccc3NS(=O)(=O)c3cc(OC)ccc3OC)CC[C@H](OC)[C@]34C1[C@H](C[C@H]23)[C@@]1(O)C[C@H](OC)[C@H]2C[C@@H]4[C@]1(O)[C@H]2OC	65.8
CCN1C[C@]2(OC(=O)c3ccccc3NS(=O)(=O)c3c(C)cc(C)cc3C)CC[C@H](OC)[C@]34C1[C@H](C[C@H]23)[C@@]1(O)C[C@H](OC)[C@H]2C[C@@H]4[C@]1(O)[C@H]2OC	52.1
CCN1C[C@]2(OC(=O)c3ccccc3NS(=O)(=O)c3ccccc3Br)CC[C@H](OC)[C@]34C1[C@H](C[C@H]23)[C@@]1(O)C[C@H](OC)[C@H]2C[C@@H]4[C@]1(O)[C@H]2OC	24.7
CCN1C[C@]2(OC(=O)c3ccccc3NC(=O)c3ccccc3N(C)C)CC[C@H](OC)[C@]34C1[C@H](C[C@H]23)[C@@]1(O)C[C@H](OC)[C@H]2C[C@@H]4[C@]1(O)[C@H]2OC	34.2
CCN1C[C@]2(OC(=O)c3ccccc3NS(=O)(=O)c3ccccc3Cl)CC[C@H](OC)[C@]34C1[C@H](C[C@H]23)[C@@]1(O)C[C@H](OC)[C@H]2C[C@@H]4[C@]1(O)[C@H]2OC	64.3
CCN1C[C@]2(OC(=O)c3ccccc3NS(=O)(=O)c3cccc(F)c3)CC[C@H](OC)[C@]34C1[C@H](C[C@H]23)[C@@]1(O)C[C@H](OC)[C@H]2C[C@@H]4[C@]1(O)[C@H]2OC	50.2
CCN1C[C@]2(OC(=O)c3ccccc3NS(=O)(=O)c3ccc(OC)cc3OC)CC[C@H](OC)[C@]34C1[C@H](C[C@H]23)[C@@]1(O)C[C@H](OC)[C@H]2C[C@@H]4[C@]1(O)[C@H]2OC	34.9
CCN1C[C@]2(OC(=O)c3ccccc3NS(=O)(=O)c3ccc(F)cc3F)CC[C@H](OC)[C@]34C1[C@H](C[C@H]23)[C@@]1(O)C[C@H](OC)[C@H]2C[C@@H]4[C@]1(O)[C@H]2OC	27.2
CCN1C[C@]2(OC(=O)c3ccccc3NS(=O)(=O)CC)CC[C@H](OC)[C@]34C1[C@H](C[C@H]23)[C@@]1(O)C[C@H](OC)[C@H]2C[C@@H]4[C@]1(O)[C@H]2OC	4
CCN1C[C@]2(OC(=O)c3ccccc3NS(=O)(=O)c3cccc(Br)c3)CC[C@H](OC)[C@]34C1[C@H](C[C@H]23)[C@@]1(O)C[C@H](OC)[C@H]2C[C@@H]4[C@]1(O)[C@H]2OC	13
CCN1C[C@]2(OC(=O)c3ccccc3NS(=O)(=O)c3cc(Cl)ccc3OC)CC[C@H](OC)[C@]34C1[C@H](C[C@H]23)[C@@]1(O)C[C@H](OC)[C@H]2C[C@@H]4[C@]1(O)[C@H]2OC	43.2
CCN1C[C@]2(OC(=O)c3ccccc3NS(C)(=O)=O)CC[C@H](OC)[C@]34C1[C@H](C[C@H]23)[C@@]1(O)C[C@H](OC)[C@H]2C[C@@H]4[C@]1(O)[C@H]2OC	22.8

SMILES	inhibition in vivo at 10 mg/kg [%]
CCN1C[C@]2(OC(=O)c3ccccc3NS(=O)(=O)c3ccc(OC)cc3)CC[C@H](OC)[C@]34C1[C@H](C[C@H]23)[C@@]1(O)C[C@H](OC)[C@H]2C[C@@H]4[C@]1(O)[C@H]2OC	16.8
CCN1C[C@]2(OC(=O)c3ccccc3NS(=O)(=O)c3ccc(OC)c(OC)c3)CC[C@H](OC)[C@]34C1[C@H](C[C@H]23)[C@@]1(O)C[C@H](OC)[C@H]2C[C@@H]4[C@]1(O)[C@H]2OC	13.7
CCN1C[C@]2(OC(=O)c3ccccc3NS(=O)(=O)c3ccccc3F)CC[C@H](OC)[C@]34C1[C@H](C[C@H]23)[C@@]1(O)C[C@H](OC)[C@H]2C[C@@H]4[C@]1(O)[C@H]2OC	60.3
CCN1C[C@]2(OC(=O)c3ccccc3NS(=O)(=O)c3ccc(N(C)C)cc3)CC[C@H](OC)[C@]34C1[C@H](C[C@H]23)[C@@]1(O)C[C@H](OC)[C@H]2C[C@@H]4[C@]1(O)[C@H]2OC	23
CCN1C[C@]2(OC(=O)c3ccccc3NS(=O)(=O)c3ccc(C)cc3)CC[C@H](OC)[C@]34C1[C@H](C[C@H]23)[C@@]1(O)C[C@H](OC)[C@H]2C[C@@H]4[C@]1(O)[C@H]2OC	27.7
CCN1C[C@]2(OC(=O)c3ccccc3NS(=O)(=O)c3ccccc3C#N)CC[C@H](OC)[C@]34C1[C@H](C[C@H]23)[C@@]1(O)C[C@H](OC)[C@H]2C[C@@H]4[C@]1(O)[C@H]2OC	53.9
CCN1C[C@]2(OC(=O)c3ccccc3NS(=O)(=O)c3cccc(C#N)c3)CC[C@H](OC)[C@]34C1[C@H](C[C@H]23)[C@@]1(O)C[C@H](OC)[C@H]2C[C@@H]4[C@]1(O)[C@H]2OC	47.4
CCN1C[C@]2(OC(=O)c3ccccc3NS(=O)(=O)c3ccc(F)cc3)CC[C@H](OC)[C@]34C1[C@H](C[C@H]23)[C@@]1(O)C[C@H](OC)[C@H]2C[C@@H]4[C@]1(O)[C@H]2OC	14.7
CCN1C[C@]2(OC(=O)c3ccccc3NS(=O)(=O)c3ccc(C(F)(F)F)cc3)CC[C@H](OC)[C@]34C1[C@H](C[C@H]23)[C@@]1(O)C[C@H](OC)[C@H]2C[C@@H]4[C@]1(O)[C@H]2OC	19.4
CCN1C[C@]2(OC(=O)c3ccccc3NS(=O)(=O)c3ccc(C#N)cc3)CC[C@H](OC)[C@]34C1[C@H](C[C@H]23)[C@@]1(O)C[C@H](OC)[C@H]2C[C@@H]4[C@]1(O)[C@H]2OC	21.4
CCN1C[C@]2(OC(=O)c3ccccc3NS(=O)(=O)Cc3ccccc3)CC[C@H](OC)[C@]34C1[C@H](C[C@H]23)[C@@]1(O)C[C@H](OC)[C@H]2C[C@@H]4[C@]1(O)[C@H]2OC	43.8
CCN1C[C@]2(OC(=O)c3ccccc3NS(=O)(=O)c3ccc(-c4ccccc4)cc3)CC[C@H](OC)[C@]34C1[C@H](C[C@H]23)[C@@]1(O)C[C@H](OC)[C@H]2C[C@@H]4[C@]1(O)[C@H]2OC	16.1
CCN1C[C@]2(OC(=O)c3ccccc3NS(=O)(=O)c3ccccc3C(F)(F)F)CC[C@H](OC)[C@]34C1[C@H](C[C@H]23)[C@@]1(O)C[C@H](OC)[C@H]2C[C@@H]4[C@]1(O)[C@H]2OC	55.2
CCN1C[C@]2(OC(=O)c3ccccc3NS(=O)(=O)c3cccc(OC)c3)CC[C@H](OC)[C@]34C1[C@H](C[C@H]23)[C@@]1(O)C[C@H](OC)[C@H]2C[C@@H]4[C@]1(O)[C@H]2OC	37.1
CCN1C[C@]2(OC(=O)c3ccccc3NS(=O)(=O)c3cc(F)cc(F)c3)CC[C@H](OC)[C@]34C1[C@H](C[C@H]23)[C@@]1(O)C[C@H](OC)[C@H]2C[C@@H]4[C@]1(O)[C@H]2OC	37.5
CCN1C[C@]2(OC(=O)c3ccccc3NS(=O)(=O)c3cccc(Cl)c3)CC[C@H](OC)[C@]34C1[C@H](C[C@H]23)[C@@]1(O)C[C@H](OC)[C@H]2C[C@@H]4[C@]1(O)[C@H]2OC	33.1
CCN1C[C@]2(OC(=O)c3ccccc3NC(=O)c3ccc(OC)c(OC)c3)CC[C@H](OC)[C@]34C1[C@H](C[C@H]23)[C@@]1(O)C[C@H](OC)[C@H]2C[C@@H]4[C@]1(O)[C@H]2OC	34.6
CCN1C[C@]2(OC(=O)c3ccccc3NS(=O)(=O)c3ccc(F)c(F)c3)CC[C@H](OC)[C@]34C1[C@H](C[C@H]23)[C@@]1(O)C[C@H](OC)[C@H]2C[C@@H]4[C@]1(O)[C@H]2OC	28.3
CCN1C[C@]2(OC(=O)c3ccccc3NS(=O)(=O)c3cc(F)ccc3F)CC[C@H](OC)[C@]34C1[C@H](C[C@H]23)[C@@]1(O)C[C@H](OC)[C@H]2C[C@@H]4[C@]1(O)[C@H]2OC	45.1
